Assay type: physicochemical
Conditions: Tris-hydrochloric acid buffer (pH 7.5) 50 mmol/L, magnesium chloride 5 mmol/L, evaluation compound 1 µmol/L, 37°C, 60 minutes, average of duplicate
Procedure: The conversion from the evaluation compounds to brexpiprazole in a buffer (i.e., the stability of the evaluation compounds) was evaluated.
The Example 1 compound was dissolved in acetonitrile/water (1:1, v/v) to 10 mmol/L and further diluted with acetonitrile/water (1:1, v/v) to 100 µmol/L for use.
The other Example compounds and the Reference Example 5 compound to Reference Example 7 compound were each dissolved in DMSO to 10 mmol/L and further diluted with acetonitrile to 100 µmol/L for use, except for the following compounds.
The compounds of Examples 52, 95, 96, 117, and 130 (EX 52, EX 95, EX 96, EX 117, and EX 130) were dissolved in acetonitrile/water (8:2, v/v) to 10 mmol/L and further diluted with acetonitrile to 100 µmol/L for use.
The compound of Example 97 (EX 97) was dissolved in acetonitrile/water (8:2, v/v) to 10 mmol/L and further diluted with acetonitrile/water (8:2, v/v) to 100 µmol/L for use.
The compounds of Examples 15 and 116 (EX 15 and EX 116) were dissolved in DMSO to 1 mmol/L and further diluted with acetonitrile to 100 µmol/L for use.
These evaluation compound solutions were prepared at the time of use.
The reaction was conducted by preparing each reaction solution such that the final concentration of each component was as follows. The test was conducted in duplicate.
For the compounds of Examples 1 to 8, 10 to 19, 26 to 27, 37, 50, 87 to 89, 91, 116, 121, 123, 150, and 151 (EX 1 to EX 8, EX 10 to EX 19, EX 26 to EX 27, EX 37, EX 50, EX 87 to EX 89, EX 91, EX 116, EX 121, EX 123, EX 150, and EX 151), and the compounds of Reference Examples 5 to 7 (REX 5 to REX 7), the reaction solution without the evaluation compound (198 µl) was pre-incubated at 37°C for 3 minutes, and then each of the evaluation compound solutions (2 µl) was added and stirred; thereafter, the reaction was started at 37°C. At 0 minutes or 60 minutes after the start of the reaction, the reaction was stopped by adding and stirring a reaction stop solution (1000 µl) composed of acetonitrile/isopropanol (4:1, v/v) containing internal standard substances. However, the 0-minute reaction sample (198 µl) was prepared by adding the evaluation compound (2 µl) after adding the reaction stop solution (1000 µl). The samples after stopping the reaction were used as the measurement samples. Calibration curve samples with the same composition were prepared (final concentrations of the evaluation compounds and brexpiprazole: 0.01, 0.1, and 1 µmol/L, with the proviso that for the evaluation compounds only, the 0-minute reaction samples were also used as calibration curve samples for 1 µmol/L).
For the compounds of Examples 24 to 25, 28 to 29, 32 to 36, 40 to 49, 51 to 60, 62 to 64, 66 to 77, 80 to 86, 90, 92 to 111, 113, 115, 117 to 120, 122, 124 to 130, 132 to 147, and 152 to 160 (EX 24 to EX 25, EX 28 to EX 29, EX 32 to EX 36, EX 40 to EX 49, EX 51 to EX 60, EX 62 to EX 64, EX 66 to EX 77, EX 80 to EX 86, EX 90, EX 92 to EX 111, EX 113, EX 115, EX 117 to EX 120, EX 122, EX 124 to EX 130, EX 132 to EX 147, and EX 152 to EX 160), the reaction solution without the evaluation compound (148.5 µl) was pre-incubated at 37°C for 3 minutes, and then each of the evaluation compound solutions (1.5 µl) was added and stirred; thereafter, the reaction was started at 37°C. At 0 minutes or 60 minutes after the start of the reaction, the reaction was stopped by adding and stirring a reaction stop solution (600 µl) composed of acetonitrile/isopropanol (4:1, v/v) containing internal standard substances. However, the 0-minute reaction sample (148.5 µl) was prepared by adding the evaluation compound (1.5 µl) after adding the reaction stop solution (600 µl). The samples after stopping the reaction were used as the measurement samples. […]

Row | Concentration of brexpiprazole formed [nM] | Concentration of evaluation compound decreased [nM] | Structure (SMILES)
1 | 0 | -20 | O=c1ccc2ccc(OCCCC[N+]3(COP(=O)([O-])OCCCCO)CCN(c4cccc5sccc45)CC3)cc2[nH]1 [EX 10, (4-(benzo[b]thiophen-4-yl)-1-(4-((2-oxo-1,2-dihydroquinolin-7-yl)oxy)butyl)piperazin-1-ium-1-yl)methyl (4-hydroxybutyl) phosphate]
2 | 0 | 20 | CCOC(=O)CNP(=O)([O-])OC[N+]1(CCCCOc2ccc3ccc(=O)[nH]c3c2)CCN(c2cccc3sccc23)CC1 [EX 154]
3 | 0 | -10 | CCOC(=O)[C@@H](C)OP(=O)([O-])OC[N+]1(CCCCOc2ccc3ccc(=O)[nH]c3c2)CCN(c2cccc3sccc23)CC1 [EX 103]
4 | 0 | 120 | CCOC(=O)CCCCCOC(=O)OCOP(=O)([O-])OC[N+]1(CCCCOc2ccc3ccc(=O)[nH]c3c2)CCN(c2cccc3sccc23)CC1 [EX 144]
5 | 0 | 50 | CC(C)COCCOP(=O)([O-])OC[N+]1(CCCCOc2ccc3ccc(=O)[nH]c3c2)CCN(c2cccc3sccc23)CC1 [EX 51]
6 | 0 | 0 | O=c1ccc2ccc(OCCCC[N+]3(COP(=O)([O-])OCC4(CO)CC4)CCN(c4cccc5sccc45)CC3)cc2[nH]1 [EX 47]
7 | 0 | -10 | CCCOCCOP(=O)([O-])OC[N+]1(CCCCOc2ccc3ccc(=O)[nH]c3c2)CCN(c2cccc3sccc23)CC1 [EX 95]
8 | 0 | 120 | O=c1ccc2ccc(OCCCC[N+]3(COP(=O)([O-])OC/C=C\CO)CCN(c4cccc5sccc45)CC3)cc2[nH]1 [EX 43]
9 | 0 | 90 | CC(C)OCCOCCOCCOC(=O)OCOP(=O)([O-])OC[N+]1(CCCCOc2ccc3ccc(=O)[nH]c3c2)CCN(c2cccc3sccc23)CC1 [EX 137]
10 | 0 | 70 | C[C@@H](OP(=O)([O-])OC[N+]1(CCCCOc2ccc3ccc(=O)[nH]c3c2)CCN(c2cccc3sccc23)CC1)C(=O)OC(C)(C)C [EX 106]
11 | 0 | 120 | COCCCOC(=O)OCOP(=O)([O-])OC[N+]1(CCCCOc2ccc3ccc(=O)[nH]c3c2)CCN(c2cccc3sccc23)CC1 [EX 139]
12 | 0 | 40 | COCC(COC)OP(=O)([O-])OC[N+]1(CCCCOc2ccc3ccc(=O)[nH]c3c2)CCN(c2cccc3sccc23)CC1 [EX 56]
13 | 0 | 140 | COCC1CCC(COP(=O)([O-])OC[N+]2(CCCCOc3ccc4ccc(=O)[nH]c4c3)CCN(c3cccc4sccc34)CC2)CC1 (centres unmarked) [EX 54]
14 | 0 | 150 | COc1ccc(COC(=O)CC(C)(C)CC(=O)OCOP(=O)([O-])OC[N+]2(CCCCOc3ccc4ccc(=O)[nH]c4c3)CCN(c3cccc4sccc34)CC2)cc1 [EX 72]
15 | 0 | 30 | O=c1ccc2ccc(OCCCC[N+]3(COP(=O)([O-])OC/C=C/CO)CCN(c4cccc5sccc45)CC3)cc2[nH]1 [EX 42]
16 | 0 | 90 | CCCCOCCOCCOCCOC(=O)OCOP(=O)([O-])OC[N+]1(CCCCOc2ccc3ccc(=O)[nH]c3c2)CCN(c2cccc3sccc23)CC1 [EX 138]
17 | 0 | 0 | COCCOC(=O)OCOP(=O)([O-])OC[N+]1(CCCCOc2ccc3ccc(=O)[nH]c3c2)CCN(c2cccc3sccc23)CC1 [EX 33]
18 | 0 | -10 | CC(C)(C)C(=O)OCOP(=O)([O-])OC[N+]1(CCCCOc2ccc3ccc(=O)[nH]c3c2)CCN(c2cccc3sccc23)CC1 [EX 25]
19 | 0 | -20 | COCCOCCOCCOC(=O)OCOP(=O)([O-])OC[N+]1(CCCCOc2ccc3ccc(=O)[nH]c3c2)CCN(c2cccc3sccc23)CC1 [EX 35]
20 | 0 | -70 | CCCCOP(=O)([O-])OC[N+]1(CCCCOc2ccc3ccc(=O)[nH]c3c2)CCN(c2cccc3sccc23)CC1 [EX 89]
21 | 0 | 90 | C[C@@H]1CN(CCOP(=O)([O-])OC[N+]2(CCCCOc3ccc4ccc(=O)[nH]c4c3)CCN(c3cccc4sccc34)CC2)C[C@H](C)O1 [EX 116]
22 | 0 | 70 | CCOC(=O)C(CC)OP(=O)([O-])OC[N+]1(CCCCOc2ccc3ccc(=O)[nH]c3c2)CCN(c2cccc3sccc23)CC1 (centres unmarked) [EX 110]
23 | 0 | 50 | CN1CCN(CCOP(=O)([O-])OC[N+]2(CCCCOc3ccc4ccc(=O)[nH]c4c3)CCN(c3cccc4sccc34)CC2)CC1 [EX 117]
24 | 0 | 100 | CC(C)(CC(=O)O)CC(=O)OCOP(=O)([O-])OC[N+]1(CCCCOc2ccc3ccc(=O)[nH]c3c2)CCN(c2cccc3sccc23)CC1 [EX 71]
25 | 0 | 70 | COC(=O)[C@H](COP(=O)([O-])OC[N+]1(CCCCOc2ccc3ccc(=O)[nH]c3c2)CCN(c2cccc3sccc23)CC1)NC(=O)OC(C)(C)C [EX 83]
26 | 0 | 70 | CC1(C)OCC(COC(=O)CCCCC(=O)OCOP(=O)([O-])OC[N+]2(CCCCOc3ccc4ccc(=O)[nH]c4c3)CCN(c3cccc4sccc34)CC2)CO1 [EX 75]
27 | 0 | 0 | CCCCCCCC(=O)OCOP(=O)([O-])OC[N+]1(CCCCOc2ccc3ccc(=O)[nH]c3c2)CCN(c2cccc3sccc23)CC1 [EX 27]
28 | 0 | 40 | O=c1ccc2ccc(OCCCC[N+]3(COP(=O)([O-])OCCCCCCCCCO)CCN(c4cccc5sccc45)CC3)cc2[nH]1 [EX 46]
29 | 0 | 70 | O=c1ccc2ccc(OCCCC[N+]3(COP(=O)([O-])OCCCCCCCO)CCN(c4cccc5sccc45)CC3)cc2[nH]1 [EX 45]
30 | 0 | 50 | Cc1cccc(C(=O)OCCCCCCOP(=O)([O-])OC[N+]2(CCCCOc3ccc4ccc(=O)[nH]c4c3)CCN(c3cccc4sccc34)CC2)n1 [EX 59]

Row | Structure (SMILES) | Concentration of brexpiprazole formed [nM] | Concentration of evaluation compound decreased [nM]
31 | COP(=O)([O-])OC[N+]1(CCCCOc2ccc3ccc(=O)[nH]c3c2)CCN(c2cccc3sccc23)CC1 [EX 87] | 0 | 0

Reference: patent EP4707284A1, “HETEROCYCLIC COMPOUND AND USE THEREOF” (Otsuka Pharmaceutical Co., Ltd., priority 2023, dated 2024)
